Values quoted from earlier work as cited in patent US20170281596A1, “PHARMACEUTICAL COMBINATION CONTAINING AN ANALGESIC AGENT AND AN ANTISPASMODIC AGENT” (priority 2014, published 2017).

time at which the plasma concentration level is reached (administered every 6 hours): 24 h
urinary elimination of Ketorolac and its metabolites (main route of elimination, remainder through feces): 92%
SMILES: O=C(c1ccccc1)c1ccc2n1CCC2C(=O)O (centres unmarked) [Ketorolac, carboxylic acid-5-Benzoyl-2,3-dihydro-1H-pyrrolisine-1,2-amino-2-hydroxymethyl-1,3-propanediol]
